Reference: patent US11149277B2, “Method of producing enriched exosomes” (National Health Research Institutes, priority 2016, dated 2021)

What was measured:
[1] = system: mesenchymal stem cells (MSCs); assay: EV/exosome release from mesenchymal stem cells; type: cell-based; conditions: GW for 8 days
Description: FIG. 10 includes blots and a graph. (A) is a graph showing vesicle number analysis of GW-treated mesenchymal stem cells (MSCs) P4 fractions. The CM-P4 GW-treated MSCs were collected and subjected to NanoSight Nanoparticle Tracking Analysis (NTA). Quantification of EV/exosome release is shown as the ratio of [vesicle number]/[cell number]. Data are means±SEM (n=3). ***P≤0.001. (B) is a set of blots showing the protein contents measured in the EV/exosome fraction released by MSCs treated with vehicle DMSO (MSC) or EP4 antagonists (MSCGW). The culture media (D1-4: conditioned medium from day 1 to day 4; D5-8: conditioned medium from day 5 to day 8) were collected from MSCs treated with vehicle (MSC), or GW (MSCGW) for 8 days. (C) is a set of blots showing the protein contents measured in the EV/exosome fraction released by neural stem cells (NSCs) treated with vehicle DMSO or EP4 antagonists. […]
(A) Vesicle number of GW-treated MSC P4 fractions was analyzed. […] (B) Proteins were measured in the EV/exosome fraction released by MSCs treated with vehicle DMSO, EP4 antagonists (GW), or EP4 agonist PGE2. […] (C) Cytokines were measured in the EV/exosome fraction released by MSCs treated with DMSO (MSC) or EP4 antagonist (MSCGW). […] EV/exosome cytokines released by the same number of MSCs were measured using cytokine arrays (C) and Bio-plex (D; IL-10). […]

[2] = system: HMLE cells; assay: Exosome markers in CM-P4 fraction of non-stem HMLE cells; type: cell-based; conditions: 2 days treatment
Description: FIG. 2 includes graphs and blots showing analyses of GW-treated NAMEC P4 fractions. CM-P4 GW-treated NAMECs were collected and subjected to (A) NanoSight Nanoparticle Tracking Analysis (NTA) and (B) Dynamic Light Scattering/Zeta Potential Analysis (DLS). […] D: particle diameter. RN: relative number. (C) is a blot showing the amounts of the CD44 stem cell marker and the CD81, CD9, TSG101, Alix, HSP70 and GAPDH exosome markers measured in the indicated CM-P4 fractions and cell lysates. The culture media and cell lysates were collected from the same number of NAMECs treated with vehicle (Crl), GW627368X (GW) or PGE2 (1 μM) for 4 days. (D) is a blot showing the amounts of the GAPDH and CD81 exosome markers and the CD44 stem cell marker measured in the CM-P4 fraction of NAMECs (CD44hi/CD24− stem cells) or CD44lo/CD24+ non-stem cells (HMLE cells) treated with vehicle (Crl) or GW for 2 days. 1×: P4 exosome fraction released by 1×10^6 cells; 2×: P4 exosome fraction released by 2×10^6 cells. […] (E) is a blot showing that the CD44 stem cell marker and GAPDH and CD81 exosome markers were measured in the indicated P4 conditioned medium fractions of NAMECs treated with vehicle (Crl), GW627368X (GW, 1 μg/ml), AH23848 (EP4 antagonist; 0.4, 2, 4 μg/ml), or AH6809 (EP1/2/3 antagonist; 0.8, 4, 8 μg/ml). […]

[3] = system: NAMECs; assay: NanoSight Nanoparticle Tracking Analysis of CM-P4 fractions of NAMEC culture; type: cell-based, human
Description: FIG. 1 includes a TEM image and a graph. (A) is a TEM image of the P4 medium fraction of NAMECs treated with GW627368X (GW) for 4 days. Scale bar, 1 μm. (B) is a graph showing the number of particles in the CM-P4 fractions of NAMEC culture counted by using NanoSight Nanoparticle Tracking analysis. Top panel: Quantification of exosome release is shown as the ratio of [P4 GAPDH marker level]/[cell number]. Data are means±SEM (n=3). *P≤0.05. **P≤0.005. Bottom table: Quantification of exosome release is shown as the number of particles of the CM-P4 fractions released per cell measured by nanoparticle tracking analysis.
The isolated human mammary epithelial stem cells (NAMECs) were cultured in mammary epithelial cell basal medium (250 ml MCDB-170, 250 ml DMEM-F12, 1.2 g sodium bicarbonate, 2.5 μg EGF, 0.25 mg Hydrocortisone, 2.5 mg insulin, 35 mg BPE) with or without containing EP4 antagonist, i.e., GW627368X (GW) at 1 μg/ml, or AH23848 (AH) at 4 μg/ml, for 4 days. The culture medium was supplied with 0.5 μg/ml of GW or 2 μg/ml of AH23848 at the third day of the culturing period. For the induction of EP4 antagonist-induced exosomes from mouse mammary epithelial cells, cells were cultured in a medium containing 10 μg/ml of GW for 4 days.
The culture media were centrifuged at 300 g for 5 min to remove cells (P1), at 2,000 g for 20 min (P2), then at 10,000 g for 30 min (P3) all at 4° C. Dead cells and cell debris were removed at 300 g (P1) and 1200 g (P2). Finally, exosomes (P4) were separated from the supernatant by centrifugation at 110,000 g for 60 min. The P4 exosome pellet was washed once in PBS and then re-suspended in PBS for further application.

In the case of `CCOc1c2c(c(OCC)c3ccccc13)C(=O)N(c1ccc(CC(=O)NS(=O)(=O)c3ccccc3)cc1)C2` [GW627368X], the “release of EVs/exosomes from MSCs” value [1] is reported as “increased the release of EVs/exosomes”, the “exosome release from non-stem HMLE cells (CD81, CD44, GAPDH)” value [2] is reported as “did not increase exosome release” and the “concentration of released membrane vesicles” value ([3]; CM-P4 fraction, 4 days, PGE2 1 μM) is reported as ~5.4×10^4 particle/cell. For the same compound, the “release of membrane vesicles compared to untreated and PGE2-treated NAMECs” value ([3]; particle numbers in CM-P4) was “significantly triggered the release of membrane vesicles”.
